For this assay, the system named is asymmetric di-methyl PABP1 in RKO cells. As to the kind of experiment: RKO methylation assay, In Cell Western (ICW) for asymmetric di-methyl PABP1. The assay is classed as cell-based. As to conditions: Homo sapiens, RKO, Cellular potencies, ICW PABP1me2a. Put shortly:
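RKO cells treated with compound for 48 h at 37 °C, then fixed, permeabilized and immunostained for asymmetric di-methyl PABP1, with DRAQ5 as DNA stain. Infrared 700/800 nm signal ratio normalized to DMSO and 20 μM reference-compound controls; IC50 from triplicate wells.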

Each structure is given as a SMILES string.

For the compound `CNCC(O)COc1cccc(-c2nc(NC(C)C3CCOCC3)c(C)c(-c3c(C)noc3C)n2)c1` (stereo not shown) [Example 157-1a], the IC50 is below 5 µM.
The same measure for `CNCC(O)COc1cccc(-c2nc(-c3nc(C)c[nH]3)cc(N(C)C3CCOCC3)n2)c1` (stereo not shown) [Example 521-1a]: 5 to 10 µM.
The result for `CNCC(O)COc1cccc(-c2nc(-c3c(C)noc3C)cc(N3CCN(CCF)[C@@H](C)C3)n2)c1` (stereo partly shown) [Example 103-1a] reads below 5 µM; that for `CNCC(O)COc1cccc(-c2nc(N[C@@H]3CCN(C(=O)OC(C)(C)C)C[C@@H]3F)c(C)c(-c3c(C)noc3C)n2)c1` (stereo partly shown) [Example 227-1a], below 5 µM.
The same measure for `CNC[C@@H](O)COc1ccc(Cl)c(-c2nc(-c3c(C)noc3C)c(C)c(N3CC(F)C3)n2)c1` [Example 206-3]: below 5 µM; for `CNC[C@@H](O)COc1ccc(Cl)c(-c2nc(NC3CC(C)C3)c(C)c(-c3c(C)noc3C)n2)c1` (stereo partly shown) [Example 230-3]: below 5 µM; for `CNC[C@@H](O)COc1ccc(Cl)c(-c2nc(-c3c(C)noc3C)c(C)c(N3Cc4cc(Cl)cnc4C3)n2)c1` [Example 156-3]: below 5 µM.
With `CNCC(O)COc1cccc(-c2nc(-c3c(C)noc3C)c(C)c(N3C[C@H](C)O[C@@H](C)C3)n2)c1` (stereo partly shown) [Example 199-1a], the IC50 is below 5 µM.
The result for `CCO[C@H]1CCC[C@@H]1Nc1nc(-c2cc(OC[C@H](O)CNC)ccc2Cl)nc(-c2c(C)noc2C)c1C` [Example 222-3] reads below 5 µM.
The same measure for `CNCC(O)COc1cccc(-c2nc(-c3c(C)noc3C)cc(N3CCNC(C)(C)C3)n2)c1` (stereo not shown) [Example 36-1a]: 10 to 20 µM; for `CNCC(O)COc1cccc(-c2nc(N[C@@H]3CCOC3)c(C)c(N3CCC4(CC3)CNC(=O)C4)n2)c1` (stereo partly shown) [Example 424-1a]: 10 to 20 µM; for `CC[C@H]1CN(c2nc(-c3cccc(OCC(O)CNC)c3)nc(-c3c(C)noc3C)c2C)CCN1S(=O)(=O)CC` (stereo partly shown) [Example 154-1a]: below 5 µM.
The same measure for `CNCC(O)COc1cccc(-c2nc(N[C@@H]3CCC[C@@H]3O)c(C)c(-c3c(C)noc3C)n2)c1` (stereo partly shown) [Example 250-1a]: below 5 µM; for `CNC[C@@H](O)COc1ccc(Cl)c(-c2nc(N[C@H]3CO[C@@H](C)C3)c(C)c(-c3c(C)noc3C)n2)c1` [Example 152-3]: below 5 µM.
As for `CNCC(O)COc1cccc(-c2nc(-c3c(C)noc3C)cc(N3CCN(C)[C@H](C)C3)n2)c1` (stereo partly shown) [Example 175-1a], the IC50 was in the range of 5 to 10 µM.
As to `CNCC(O)COc1cccc(-c2nc(N[C@@H]3CCOC3)c(C)c(N3CCC(OC)CC3)n2)c1` (stereo partly shown) [Example 370-1a], the IC50 lay within 5 to 10 µM.
The same measure for `CNCC(O)COc1cccc(-c2nc(-c3c(C)noc3C)cc(N3CCN(C(C)=O)C4(CC4)C3)n2)c1` (stereo not shown) [Example 70-1a]: below 5 µM.
The same measure for `CNCC(O)COc1cccc(-c2nc(NC3CCS(=O)(=O)CC3)cc(-c3c(C)noc3C)n2)c1` (stereo not shown) [Example 60-1a]: 10 to 20 µM; for `CNC[C@@H](O)COc1ccc(Cl)c(-c2nc(N[C@H]3C[C@@H](C)O[C@@H](C)C3)c(C)c(-c3c(C)noc3C)n2)c1` [Example 172-3]: below 5 µM.
The compound `CNC[C@H](O)COc1ccc(Cl)c(-c2nc(N[C@@H]3CCN(C(=O)OC)[C@@H](C)C3)c(C)c(-c3c(C)noc3C)n2)c1` [Example 66-3] returned a 50% inhibitory concentration (IC50) below 5 µM.
The result for `CNCC(O)COc1cccc(-c2nc(NCC3(O)CCOCC3)c(C)c(-c3c(C)noc3C)n2)c1` (stereo not shown) [Example 114-1a] reads 10 to 20 µM.
For the compound `CNCC(O)COc1cccc(-c2nc(NC[C@H]3COCCN3CC(F)F)c(C)c(-c3c(C)noc3C)n2)c1` (stereo partly shown) [Example 274-1a], the IC50 was below 5 µM.
The same measure for `CNCC(O)COc1cccc(-c2nc(-c3c(C)noc3C)c(C)c(N3CCS(=O)(=O)CC3)n2)c1` (stereo not shown) [Example 57-1a]: 10 to 20 µM; for `CNC[C@@H](O)COc1ccc(Cl)c(-c2nc(N[C@H]3CCN(C4CC4)[C@@H](C)C3)c(C)c(-c3c(C)noc3C)n2)c1` [Example 170-3]: below 5 µM; for `CNCC(O)COc1cccc(-c2nc(-c3c(C)noc3C)c(C)c(N3CCN(C(=O)OCCOC)CC3)n2)c1` (stereo not shown) [Example 134-1a]: below 5 µM.
The compound `CNC[C@@H](O)COc1ccc(Cl)c(-c2nc(-c3c(C)noc3C)c(C)c(N3CCC4(CC3)CN(C(=O)OC)C4)n2)c1` [Example 115-3] returned an IC50 below 5 µM.
The same measure for `CNCC(O)COc1cc(Cl)cc(-c2nc(NC3CCNCC3)cc(-c3ccncc3)n2)c1` (stereo not shown) [Example 665-1a]: at least 20 µM; for `CNC[C@@H](O)COc1ccc(Cl)c(-c2nc(-c3c(C)noc3C)c(C)c(N3Cc4cnn(C5CC5)c4C3)n2)c1` [Example 270-3]: below 5 µM.
`CNC[C@@H](O)COc1ccc(Cl)c(-c2nc(N[C@H]3CO[C@@H](C)C3)c(Cl)c(-c3c(C)noc3C)n2)c1` [Example 148-3] registered an IC50 below 5 µM.
The same measure for `CNC[C@@H](O)COc1ccc(Cl)c(-c2nc(OC[C@@H]3CCOC3)c(C)c(-c3c(C)noc3C)n2)c1` [Example 126-3]: below 5 µM; for `CNCC(O)COc1cccc(-c2nc(NC3CCCC3)c(C)c(-c3c(C)noc3C)n2)c1` (stereo not shown) [Example 241-1a]: below 5 µM; for `CNC[C@H](O)COc1ccc(F)c(-c2nc(-c3c(C)noc3C)c(C)c(N3Cc4cccnc4C3)n2)c1` [Example 91-3]: below 5 µM.
As to `CNC[C@@H](O)COc1ccc(Cl)c(-c2nc(-c3c(C)noc3C)c(C)c(C3CCOCC3)n2)c1` [Example 268-3], the half-maximal inhibitory concentration (IC50) is below 5 µM.
The result for `CNC[C@@H](O)COc1ccc(F)c(-c2nc(-c3c(C)noc3C)c(C)c(N3CC4(CCOCC4)C3)n2)c1` [Example 227-3] reads below 5 µM.
The same measure for `CNCC(O)COc1ccc(Cl)c(-c2nc(O[C@H]3CCN(C(=O)OC)[C@@H](C)C3)c(C)c(-c3c(C)noc3C)n2)c1` (stereo partly shown) [Example 36-3]: below 5 µM; for `CNCC(O)COc1cccc(-c2nc(NC3CCOC3)c(C)c(N3CCN(CC(F)F)C(C)(C)C3)n2)c1` (stereo not shown) [Example 457-1a]: 10 to 20 µM; for `CNCC(O)COc1cc(Cl)cc(-c2nc(N(C)C3CCOCC3)c(C)c(-n3cccn3)n2)c1` (stereo not shown) [Example 618-1a]: 10 to 20 µM.
In the case of `CNCC(O)COc1cccc(-c2nc(-c3c(C)noc3C)c(C)c(N(C)C3CCOCC3)n2)c1` (stereo not shown) [Example 34-1a], the IC50 was below 5 µM.
The same measure for `CNCC(O)COc1cccc(-c2nc(NC3CCOC3)c(C)c(N3CCN(C(=O)OC)C(C)(C)C3)n2)c1` (stereo not shown) [Example 447-1a]: 10 to 20 µM.
As for `CNCC(O)COc1ccc(Cl)c(-c2nc(NC3CCOCC3)c(C)c(-c3c(CO)noc3C)n2)c1` (stereo not shown) [Example 273-3], the IC50 lay within 5 to 10 µM.
The result for `CNCC(O)COc1cccc(-c2nc(N[C@@H]3CCOC3)c(C)c(N3C[C@H]4CNC[C@H]4C3)n2)c1` (stereo partly shown) [Example 440-1a] reads 10 to 20 µM; that for `CNCC(O)COc1cccc(-c2nc(-c3c(C)noc3C)cc(N3CCNC(C(=O)O)C3)n2)c1` (stereo not shown) [Example 29-1a], 10 to 20 µM.
The same measure for `CCN(CC)c1nc(-c2cccc(OCC(O)CNC)c2)nc(N2CCOCC2)c1C` (stereo not shown) [Example 682-1a]: at least 20 µM.
The same measure for `CCOC(=O)N1CCCCC1CNc1nc(-c2cc(OC[C@H](O)CNC)ccc2Cl)nc(-c2c(C)noc2C)c1C` (stereo partly shown) [Example 28-3]: below 5 µM; for `CCOC(=O)N1CCN(c2cc(-c3c(C)noc3C)nc(-c3cccc(OCC(O)CNC)c3)n2)CC1` (stereo not shown) [Example 28-1a]: below 5 µM; for `CCOC(=O)N1CCC[C@H]1CCOc1nc(-c2cc(OC[C@H](O)CNC)ccc2Cl)nc(-c2c(C)noc2C)c1C` [Example 221-3]: below 5 µM.
Take `CNCC(O)COc1cccc(-c2nc(-c3ccnc(C#N)c3)cc(N(C)C3CCOCC3)n2)c1` (stereo not shown) [Example 498-1a]: the IC50 was below 5 µM.
Compound `CNCC(O)COc1cccc(-c2nc(N[C@@H]3CCOC3)c(C)c(-c3cncc(C#N)c3)n2)c1` (stereo partly shown) [Example 341-1a] came in with a 50% inhibitory concentration (IC50) of 10 to 20 µM.
Consider `CNCC(O)COc1cccc(-c2nc(OCC3CCOCC3)c(C)c(-c3c(C)noc3C)n2)c1` (stereo not shown) [Example 182-1a], for which the IC50 was below 5 µM.
The result for `CNCC(O)COc1cccc(-c2nc(-c3c(C)noc3C)c(C)c(N3CCN(C(=O)C(F)F)CC3)n2)c1` (stereo not shown) [Example 107-1a] reads below 5 µM; that for `CNCC(O)COc1cccc(-c2nc(N[C@@H]3CCOC3)c(C)c(N3CCN(C(C)=O)C(C)(C)C3)n2)c1` (stereo partly shown) [Example 439-1a], 5 to 10 µM; that for `CNC[C@H](O)COc1ccc(Cl)c(-c2nc(-c3c(C)noc3C)c(C)c(N3CCC4(CC3)CN(C(=O)OC)C4)n2)c1` [Example 85-3], below 5 µM.
For the compound `CNCC(O)COc1cccc(-c2nc(-c3cnc4ccnn4c3)cc(N(C)C3CCOCC3)n2)c1` (stereo not shown) [Example 564-1a], the IC50 lay within 10 to 20 µM.
`CNCC(O)COc1cccc(-c2nc(N(C)C3CCOCC3)cc(N3C[C@@H]4C[C@H]3CN4C)n2)c1` (stereo partly shown) [Example 543-1a] returned an IC50 of 10 to 20 µM.
The result for `CNCC(O)COc1cccc(-c2nc(C(=O)NCC3CCOCC3)cc(N(C)C3CCOCC3)n2)c1` (stereo not shown) [Example 548-1a] reads 10 to 20 µM.
The compound `CNC[C@@H](O)COc1ccc(Cl)c(-c2nc(NC[C@H]3CCCO3)c(Cl)c(-c3c(C)noc3C)n2)c1` [Example 215-3] yielded an IC50 below 5 µM.
The same measure for `CNC[C@@H](O)COc1ccc(Cl)c(-c2nc(N[C@H]3CN(C4CC4)C[C@@H]3F)c(C)c(-c3c(C)noc3C)n2)c1` [Example 203-3]: below 5 µM; for `CNC[C@H](O)COc1ccc(Cl)c(-c2nc(N[C@H]3CCN(C(=O)OC)C[C@H]3F)c(C)c(-c3c(C)noc3C)n2)c1` [Example 65-3]: below 5 µM; for `CNCC(O)COc1cccc(-c2nc(NC3C4COCC43)c(C)c(-c3c(C)noc3C)n2)c1` (stereo not shown) [Example 212-1a]: below 5 µM.
`CNC[C@@H](O)COc1ccc(Cl)c(-c2nc(N[C@H]3CCN(C)C[C@H]3F)c(C)c(-c3c(C)noc3C)n2)c1` [Example 147-3]: the IC50 was below 5 µM.
The compound `CNC[C@@H](O)COc1ccc(Cl)c(-c2nc(N[C@@H]3CCN(C4CC4)[C@H](C)C3)c(C)c(-c3c(C)noc3C)n2)c1` [Example 139-3] registered a half-maximal inhibitory concentration (IC50) below 5 µM.

(Values after patent US10633389B2, “CARM1 inhibitors and uses thereof” (Epizyme, Inc., priority 2013, dated 2020).)
